According to ChEMBL document CHEMBL1201862, “PubChem BioAssay data set” (2004):
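Where inhibition never reached the appropriate level, the endpoint shown equals the highest concentration tested. Otherwise, values were interpolated linearly from a five-concentration, 48-hour dose response in 96-well plates. At the GI50, growth is halved.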 The source made the active and inactive calls. Rule as the data show it: active = GI50 up to about 1.1 µM and inactive = higher.

Tests used:
Test in all cases: inhibition of tumour cell growth, NCI panel, 48 h
IGROV-1 = system: IGROV-1
HOP-62 = system: HOP-62
SK-MEL-28 = system: SK-MEL-28
MDA-MB-435 = system: MDA-MB-435
TK-10 = system: TK-10
OVCAR-5 = system: OVCAR-5
RXF 393 = system: RXF 393
NCI-H23 = system: NCI-H23
T47D = system: T47D
SF-539 = system: SF-539
SK-OV-3 = system: SK-OV-3
EKVX = system: EKVX
HOP-92 = system: HOP-92
HCC 2998 = system: HCC 2998
SF-268 = system: SF-268
M14 = system: M14
MDA-N = system: MDA-N
Malme-3M = system: Malme-3M
SN12C = system: SN12C
A498 = system: A498
ACHN = system: ACHN
MDA-MB-231 = system: MDA-MB-231
HCT-15 = system: HCT-15
BT-549 = system: BT-549
LOX IMVI = system: LOX IMVI
NCI-H522 = system: NCI-H522
SF-295 = system: SF-295
MCF7 = system: MCF7
COLO 205 = system: COLO 205
DU-145 = system: DU-145
UO-31 = system: UO-31
CAKI-1 = system: CAKI-1
UACC-62 = system: UACC-62
NCI/ADR-RES = system: NCI/ADR-RES
U-251 = system: U-251
SNB-75 = system: SNB-75
SK-MEL-5 = system: SK-MEL-5
SNB-19 = system: SNB-19
HCT-116 = system: HCT-116
MOLT-4 = system: MOLT-4
HT-29 = system: HT-29
KM12 = system: KM12
NCI-H460 = system: NCI-H460
UACC-257 = system: UACC-257
OVCAR-4 = system: OVCAR-4
A549 = system: A549
SW-620 = system: SW-620
SK-MEL-2 = system: SK-MEL-2
OVCAR-3 = system: OVCAR-3
OVCAR-8 = system: OVCAR-8
Hs-578T = system: Hs-578T
786-0 = system: 786-0
PC-3 = system: PC-3
CCRF-CEM = system: CCRF-CEM
RPMI-8226 = system: RPMI-8226
K562 = system: K562
NCI-H226 = system: NCI-H226
HL-60 = system: HL-60

Measured: GI50

CCC1(C)C=Cc2c(cc(OC)c3c(=O)c4ccccc4n(C)c23)O1 (centres undefined)
inactive: IGROV-1 > 10 µM | HOP-62 > 10 µM | SK-MEL-28 9.16 µM | MDA-MB-435 > 10 µM | TK-10 > 10 µM | OVCAR-5 > 10 µM | RXF 393 2.44 µM | NCI-H23 > 10 µM | T47D 4.99 µM | SF-539 4.47 µM | SK-OV-3 > 10 µM | EKVX > 10 µM | HOP-92 > 10 µM | HCC 2998 > 10 µM | SF-268 > 10 µM | M14 > 10 µM | MDA-N > 10 µM | Malme-3M > 10 µM | SN12C > 10 µM | A498 > 10 µM | ACHN > 10 µM | MDA-MB-231 > 10 µM | BT-549 5.4 µM | LOX IMVI > 10 µM | NCI-H522 > 10 µM | SF-295 3.56 µM | COLO 205 > 10 µM | DU-145 > 10 µM | UO-31 1.15 µM | CAKI-1 1.22 µM | UACC-62 9.98 µM | NCI/ADR-RES > 10 µM | U-251 > 10 µM | SNB-75 7.13 µM | SK-MEL-5 > 10 µM | SNB-19 > 10 µM | HCT-116 > 10 µM | MOLT-4 > 10 µM | HT-29 7.69 µM | KM12 1.5 µM | NCI-H460 8 µM | UACC-257 > 10 µM | OVCAR-4 9.51 µM | A549 3.94 µM | SW-620 > 10 µM | SK-MEL-2 > 10 µM | OVCAR-3 9.55 µM | OVCAR-8 > 10 µM | Hs-578T 5.6 µM | 786-0 5.27 µM | PC-3 > 10 µM | CCRF-CEM 9.27 µM | RPMI-8226 3.83 µM | K562 8.61 µM | NCI-H226 > 10 µM
7.23 µM: HCT-15
active: MCF7 0.785 µM

COc1ccc2c(=O)oc3c(OC)cc(CCN(C)C)c4c(=O)oc1c2c34 [TASPINE]
active: CCRF-CEM 0.948 µM
inactive: MDA-MB-435 8.32 µM | OVCAR-5 11.7 µM | NCI-H23 9.27 µM | T47D 9.35 µM | SF-268 7.33 µM | M14 9.31 µM | MDA-N 7.82 µM | SN12C 7.78 µM | A498 10.3 µM | MDA-MB-231 8.55 µM | BT-549 7.74 µM | NCI-H522 6.76 µM | MCF7 5.86 µM | COLO 205 9.16 µM | DU-145 8.51 µM | UACC-62 8.97 µM | NCI/ADR-RES 7.46 µM | U-251 9.68 µM | SK-MEL-5 7.29 µM | SNB-19 8.93 µM | MOLT-4 6.79 µM | SK-MEL-2 12.1 µM | OVCAR-3 9.86 µM | OVCAR-8 6.93 µM | Hs-578T 10.3 µM | PC-3 10.5 µM | NCI-H226 24.2 µM

CC(C)(CO)N1C(=O)c2ccccc2C1(O)c1ccc(Cl)cc1 (centres undefined)
inactive: IGROV-1 > 100 µM | HOP-62 > 100 µM | SK-MEL-28 > 100 µM | MDA-MB-435 > 100 µM | TK-10 > 100 µM | OVCAR-5 > 100 µM | RXF 393 39.9 µM | NCI-H23 > 100 µM | T47D 72.3 µM | SK-OV-3 > 100 µM | EKVX > 100 µM | HCC 2998 > 100 µM | SF-268 > 100 µM | M14 > 100 µM | MDA-N > 100 µM | Malme-3M > 100 µM | SN12C > 100 µM | ACHN > 100 µM | MDA-MB-231 > 100 µM | BT-549 > 100 µM | NCI-H522 > 100 µM | SF-295 > 100 µM | MCF7 > 100 µM | COLO 205 > 100 µM | DU-145 > 100 µM | UO-31 63.2 µM | CAKI-1 > 100 µM | UACC-62 > 100 µM | NCI/ADR-RES > 100 µM | U-251 > 100 µM | SNB-75 > 100 µM | SK-MEL-5 > 100 µM | SNB-19 > 100 µM | HCT-116 > 100 µM | MOLT-4 > 100 µM | HT-29 > 100 µM | KM12 > 100 µM | NCI-H460 84.9 µM | UACC-257 > 100 µM | OVCAR-4 94 µM | A549 > 100 µM | SW-620 > 100 µM | SK-MEL-2 37.8 µM | OVCAR-3 88.7 µM | HL-60 > 100 µM | OVCAR-8 > 100 µM | Hs-578T > 100 µM | 786-0 > 100 µM | PC-3 44.3 µM | CCRF-CEM > 100 µM | RPMI-8226 > 100 µM | K562 > 100 µM | NCI-H226 > 100 µM
> 100 µM: HCT-15

N#Cc1nnn(-c2ccc(Br)cc2)c1O
> 100 µM: HCT-15
inactive: IGROV-1 > 100 µM | HOP-62 > 100 µM | SK-MEL-28 > 100 µM | MDA-MB-435 > 100 µM | TK-10 > 100 µM | OVCAR-5 > 100 µM | RXF 393 > 100 µM | NCI-H23 > 100 µM | T47D > 100 µM | SF-539 > 100 µM | SK-OV-3 > 100 µM | EKVX > 100 µM | HCC 2998 > 100 µM | SF-268 > 100 µM | M14 > 100 µM | MDA-N 46.9 µM | Malme-3M > 100 µM | SN12C > 100 µM | A498 > 100 µM | ACHN > 100 µM | MDA-MB-231 > 100 µM | BT-549 > 100 µM | LOX IMVI > 100 µM | NCI-H522 > 100 µM | SF-295 > 100 µM | MCF7 > 100 µM | COLO 205 > 100 µM | DU-145 > 100 µM | UO-31 > 100 µM | CAKI-1 > 100 µM | UACC-62 > 100 µM | NCI/ADR-RES > 100 µM | U-251 > 100 µM | SNB-75 > 100 µM | SNB-19 > 100 µM | HCT-116 > 100 µM | MOLT-4 10 µM | HT-29 > 100 µM | KM12 > 100 µM | UACC-257 > 100 µM | OVCAR-4 > 100 µM | A549 > 100 µM | SW-620 > 100 µM | SK-MEL-2 > 100 µM | OVCAR-3 > 100 µM | HL-60 > 100 µM | OVCAR-8 > 100 µM | Hs-578T > 100 µM | 786-0 > 100 µM | PC-3 > 100 µM | CCRF-CEM > 100 µM | RPMI-8226 > 100 µM | K562 > 100 µM | NCI-H226 > 100 µM
